From patent US8450374B2, “Pan-antagonists for the androgen receptor and androgen receptor mutants associated with anti-androgen withdrawal” (priority 2009, dated 2013)
Residue numbers refer to the chain shown, from its start.

How the values were obtained:
[1] = 25 mg/kg/day IP; PLM6 death at 5 days of treatment
Excerpt: (§1) Prostates were removed from 3 day and 5 day treatment groups, sectioned and stained by H&E and TUNEL.

prostate tissues = assay: Prostate apoptosis by TUNEL after short-term IP treatment (PLM6, bicalutamide); type: in vivo, Male C57BI/6 mice; settings: 25 mg/kg/day IP, mean ± SE
Experimental: FIG. 6. […] Single 20× magnification fields from each of four lobes of mouse prostate glands were counted in each mouse. […] Data are expressed as means±SE. Statistics were determined using two-tailed, paired t-tests assuming data from each lobe was independent.
as §1
PLM6-induced glandular apoptosis was 19.9±2.8 cells per 20× field on day 3 (P=0.0064) that reached 24.63±3 cells per 20× field on day 5 (P=2.59×10^−4) (FIG. 7). Prostates from treated and control mice were isolated, fixed sectioned and stained TUNEL (BrdU). Sections were then evaluated by visible light microscopy and counting.

AR T877A [2] = biological target: T1, AR T877A (Homo sapiens, UniProt P10275, T878A); assay: Transcription assay (ARE-luciferase reporter) in CV-1 cells, AR T877A; type: cell-based; design: expressed in transfected cells; host or cells: CV-1
T1 sequence (P10275 1-920 T878A): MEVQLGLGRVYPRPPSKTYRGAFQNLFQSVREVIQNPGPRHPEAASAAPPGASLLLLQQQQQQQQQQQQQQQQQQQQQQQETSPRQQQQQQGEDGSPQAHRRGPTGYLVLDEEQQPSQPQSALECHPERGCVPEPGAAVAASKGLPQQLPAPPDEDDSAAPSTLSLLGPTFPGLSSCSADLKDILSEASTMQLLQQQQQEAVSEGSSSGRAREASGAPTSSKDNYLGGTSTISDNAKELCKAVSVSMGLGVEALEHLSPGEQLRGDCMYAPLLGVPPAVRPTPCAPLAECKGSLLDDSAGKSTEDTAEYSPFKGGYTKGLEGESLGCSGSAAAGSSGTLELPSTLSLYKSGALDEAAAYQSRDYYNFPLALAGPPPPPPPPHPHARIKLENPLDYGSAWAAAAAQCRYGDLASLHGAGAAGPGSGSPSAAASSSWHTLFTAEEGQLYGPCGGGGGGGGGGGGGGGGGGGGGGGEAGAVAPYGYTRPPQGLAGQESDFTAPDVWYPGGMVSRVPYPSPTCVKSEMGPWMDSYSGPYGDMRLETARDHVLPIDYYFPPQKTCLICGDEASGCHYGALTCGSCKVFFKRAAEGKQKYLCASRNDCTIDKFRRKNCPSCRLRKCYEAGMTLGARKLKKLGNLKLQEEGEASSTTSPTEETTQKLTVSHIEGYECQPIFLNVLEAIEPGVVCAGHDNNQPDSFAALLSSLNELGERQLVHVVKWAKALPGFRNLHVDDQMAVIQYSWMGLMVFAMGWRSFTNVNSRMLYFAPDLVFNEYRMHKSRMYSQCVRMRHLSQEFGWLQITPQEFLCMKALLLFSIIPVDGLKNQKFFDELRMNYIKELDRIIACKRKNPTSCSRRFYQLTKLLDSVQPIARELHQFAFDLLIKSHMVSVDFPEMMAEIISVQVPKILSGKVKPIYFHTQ
Experimental: (§2) Twenty-four hours prior to transfection, CV-1 cells were seeded at a density of 45,000 cells per well in 24-well cell culture plates and grown in phenol red free Dulbecco's Modified Eagle Medium (DMEM) supplemented with 10% cosmic calf serum (COS). ARE-luciferase reporter and Renilla-Luc as the internal standard and a prokaryotic expression vector encoding the wild-type androgen receptor or mutant androgen receptor were transfected with Lipofectamine (Invitrogen) following manufacturer's protocol. Five hours after transfection, media was added containing the appropriate concentrations of ligands. The cells were allowed to incubate for 38 hours before harvesting by passive lysis buffer. Cell extracts were immediately assayed using the Dual Luciferase Assay (Promega) with a Perkin-Elmer Microbeta Luminometer. […] Dose-response data was analyzed by nonlinear regression analysis using GraphPad Prism.

AR wt [3] = biological target: T2, AR wt (Homo sapiens, UniProt P10275); assay: Competitive binding assay, [3H]DHT, transfected COS-7 cells, wild-type AR; design: expressed in transfected cells; host or cells: COS-7; settings: 8 nM [3H]-DHT, read-out: Binding affinity (Ki), AR wt
T2 sequence (P10275 1-920): T1 sequence (P10275 1-920 T878A) with A878T
Experimental: (§3) Twenty-four hours prior to transfection, COS-7 cells were seeded at a density of 70,000 cells per well in 24-well cell culture plates and grown in phenol red free Dulbecco's Modified Eagle Medium (DMEM) supplement with 10% cosmic calf serum (CCS). The cells were transfected with a prokaryotic expression vector encoding the wild-type androgen receptor or mutant androgen receptor using Lipofectamine (Invitrogen) following manufacturer's protocol. […] Cells were washed with PBS and harvested in 2% SDS, 10% glycerol, and 10 mM Tris, pH 6.8, and radioactivity determined by scintillation counting.

AR wt [4] = biological target: T2, AR wt; assay: Transcription assay (ARE-luciferase reporter) in CV-1 cells, wild-type AR; type: cell-based; design: expressed in transfected cells; host or cells: CV-1
Experimental: as §2

AR W741C = biological target: T3, AR W741C (Homo sapiens, UniProt P10275, W742C); assay: Competitive binding assay, [3H]DHT, transfected COS-7 cells, AR W741C; design: expressed in transfected cells; host or cells: COS-7; settings: 75 nM [3H]-DHT, read-out: Binding affinity (Ki), AR W741C
T3 sequence (P10275 1-920 W742C): T1 sequence (P10275 1-920 T878A) with W742C, A878T
Experimental: as §3

AR T877A [5] = biological target: T1, AR T877A; assay: Competitive binding assay, [3H]DHT, transfected COS-7 cells, AR T877A; design: expressed in transfected cells; host or cells: COS-7; settings: 14 nM [3H]-DHT, read-out: Binding affinity (Ki), AR T877A
Experimental: as §3

Row | Structure (SMILES) | Deaths [1] | Glandular apoptosis, apoptotic cells (prostate tissues; day 3, TUNEL) | Glandular apoptosis, apoptotic cells (prostate tissues; day 5, TUNEL) | IC50 (AR T877A [2]) | Antagonist efficacy (RLU value at IC50), AR T877A (AR T877A [2]; in competition with 10 nM DHT) | Ki (AR wt [3]) | IC50 (AR wt [4]) | Antagonist efficacy (RLU value at IC50), AR wt (AR wt [4]; in competition with 3 nM DHT, normalized to 10 nM DHT in hAR(wt)) | Ki (AR W741C) | Ki (AR T877A [5])
1 | CC(O)(CS(=O)(=O)c1ccc(F)cc1)C(=O)Nc1ccc(C#N)c(C(F)(F)F)c1 (stereo not shown) [Bicalutamide, bicalutamide] | two | 21.04±4.7 cells per 20× field | 50.83±8.2 cells per 20× field |  |  |  |  |  |  | 
2 | CN(C)CCCOc1ccccc1Cc1ccccc1S(=O)(=O)CC(C)(O)C(=O)Nc1ccc(C#N)c(C(F)(F)F)c1 (stereo not shown) [PAN12] |  |  |  | 4.1 ± 0.7 µM | (53% ± 5.6%) | 5.8 µM | 2.4 µM | (59%) | 16 µM | 2.6 µM
